Measurements taken from ChEMBL document CHEMBL1150882, “Nitrogen-containing furanose and pyranose analogues from Hyacinthus orientalis” (J Nat Prod, 1998).

Columns and labels:
Oryza sativa = conditions: 1000 uM
Description: Inhibition of rice alpha-glucosidase at 1000 uM

[1] = biological target: Lactase/phlorizin hydrolase (Rattus norvegicus) (UniProt Q02401); conditions: Wistar, 1000 uM
Description: Inhibition of Wistar rat intestinal lactase at 1000 uM

[2] = biological target: Lysosomal alpha-glucosidase (Rattus norvegicus) (UniProt Q6P7A9); conditions: Wistar, 1000 uM
Description: Inhibition of Wistar rat intestinal maltase at 1000 uM

[3] = biological target: Sucrase-isomaltase, intestinal (Rattus norvegicus) (UniProt P23739); conditions: Wistar, 1000 uM
Description: Inhibition of Wistar rat intestinal isomaltase at 1000 uM

[4] = biological target: Sucrase-isomaltase, intestinal (Rattus norvegicus) (UniProt P23739); conditions: Wistar, 1000 uM; remark: listed apart in the source
Description: Inhibition of Wistar rat intestinal sucrase at 1000 uM

[5] = test system: Caldicellulosiruptor saccharolyticus; conditions: 1000 uM
Description: Inhibition of Caldocellum saccharolyticum beta-glucosidase at 1000 uM

[6] = biological target: T1, Tissue alpha-L-fucosidase (Bos taurus, UniProt Q2KIM0); test: Inhibition of bovine epididymis alpha-L-fucosidase at 1000 uM
T1 sequence (Q2KIM0 whole entry): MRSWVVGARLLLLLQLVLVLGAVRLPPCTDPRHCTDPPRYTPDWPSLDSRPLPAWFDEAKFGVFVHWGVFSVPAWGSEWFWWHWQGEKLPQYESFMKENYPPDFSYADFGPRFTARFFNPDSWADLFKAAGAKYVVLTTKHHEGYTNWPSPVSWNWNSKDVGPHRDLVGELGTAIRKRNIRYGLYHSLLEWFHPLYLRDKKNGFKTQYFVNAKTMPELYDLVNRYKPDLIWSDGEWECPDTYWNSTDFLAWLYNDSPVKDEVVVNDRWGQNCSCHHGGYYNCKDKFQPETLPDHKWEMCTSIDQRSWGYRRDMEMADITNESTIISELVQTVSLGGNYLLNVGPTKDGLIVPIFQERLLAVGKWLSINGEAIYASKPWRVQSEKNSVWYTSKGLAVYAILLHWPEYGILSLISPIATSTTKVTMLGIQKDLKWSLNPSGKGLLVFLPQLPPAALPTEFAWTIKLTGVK

[7] = biological target: Lysosomal alpha-glucosidase (Rattus norvegicus) (UniProt Q6P7A9); conditions: Wistar, 1000 uM; remark: listed apart in the source
Description: Inhibition of Wistar rat liver lysosomal alpha-glucosidase at 1000 uM

[8] = biological target: T2, Uncharacterized protein (Sus scrofa) (UniProt I3LIR5); conditions: 1000 uM
T2 sequence (whole entry): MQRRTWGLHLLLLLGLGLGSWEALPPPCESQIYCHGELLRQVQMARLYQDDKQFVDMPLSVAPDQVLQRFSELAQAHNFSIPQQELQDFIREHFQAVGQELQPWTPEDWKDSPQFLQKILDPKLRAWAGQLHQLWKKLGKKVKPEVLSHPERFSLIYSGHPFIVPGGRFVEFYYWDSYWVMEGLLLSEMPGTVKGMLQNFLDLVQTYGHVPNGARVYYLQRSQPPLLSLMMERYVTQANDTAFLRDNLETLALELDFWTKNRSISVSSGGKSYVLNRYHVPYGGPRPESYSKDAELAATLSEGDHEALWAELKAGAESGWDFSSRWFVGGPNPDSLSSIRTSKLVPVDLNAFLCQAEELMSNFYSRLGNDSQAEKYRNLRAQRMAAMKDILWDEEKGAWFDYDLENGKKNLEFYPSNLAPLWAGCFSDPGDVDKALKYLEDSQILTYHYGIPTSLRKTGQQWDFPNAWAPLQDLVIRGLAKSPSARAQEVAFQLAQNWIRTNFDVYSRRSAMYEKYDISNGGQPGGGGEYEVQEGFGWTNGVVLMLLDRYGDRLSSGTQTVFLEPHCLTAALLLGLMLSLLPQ
Description: Inhibition of pig kidney alpha alpha-trehalase at 1000 uM

Bos taurus = organism: Bos taurus; conditions: 1000 uM
Description: Inhibition of bovine liver beta-galactosidase at 1000 uM

Rattus norvegicus = organism: Rattus norvegicus; conditions: Wistar, 1000 uM
Description: Inhibition of Wistar rat intestinal alpha alpha-trehalase at 1000 uM

[9] = Inhibition of Caldocellum saccharolyticum beta-glucosidase; design: species or system Caldicellulosiruptor saccharolyticus
[10] = Inhibition of yeast alpha-glucosidase; design: species or system Saccharomyces cerevisiae
[11] = biological target: Lactase/phlorizin hydrolase (Rattus norvegicus, UniProt Q02401); test: Inhibition of Wistar rat intestinal lactase
Uncharacterized protein = biological target: T3, Uncharacterized protein (Sus scrofa, UniProt I3LIR5); test: Inhibition of pig kidney alpha alpha-trehalase
T3 sequence (I3LIR5 whole entry): T2 sequence (whole entry)

[12] = Inhibition of rice alpha-glucosidase; design: species or system Oryza sativa
[13] = Inhibition of bovine liver beta-galactosidase; design: species or system Bos taurus
[14] = Inhibition of Wistar rat intestinal alpha alpha-trehalase
[15] = Inhibition of almond beta-glucosidase; design: species or system Prunus dulcis
[16] = biological target: Sucrase-isomaltase, intestinal (Rattus norvegicus, UniProt P23739); test: Inhibition of Wistar rat intestinal sucrase
Chain of Sucrase-isomaltase, intestinal (P23739 1-1013 limits assumed): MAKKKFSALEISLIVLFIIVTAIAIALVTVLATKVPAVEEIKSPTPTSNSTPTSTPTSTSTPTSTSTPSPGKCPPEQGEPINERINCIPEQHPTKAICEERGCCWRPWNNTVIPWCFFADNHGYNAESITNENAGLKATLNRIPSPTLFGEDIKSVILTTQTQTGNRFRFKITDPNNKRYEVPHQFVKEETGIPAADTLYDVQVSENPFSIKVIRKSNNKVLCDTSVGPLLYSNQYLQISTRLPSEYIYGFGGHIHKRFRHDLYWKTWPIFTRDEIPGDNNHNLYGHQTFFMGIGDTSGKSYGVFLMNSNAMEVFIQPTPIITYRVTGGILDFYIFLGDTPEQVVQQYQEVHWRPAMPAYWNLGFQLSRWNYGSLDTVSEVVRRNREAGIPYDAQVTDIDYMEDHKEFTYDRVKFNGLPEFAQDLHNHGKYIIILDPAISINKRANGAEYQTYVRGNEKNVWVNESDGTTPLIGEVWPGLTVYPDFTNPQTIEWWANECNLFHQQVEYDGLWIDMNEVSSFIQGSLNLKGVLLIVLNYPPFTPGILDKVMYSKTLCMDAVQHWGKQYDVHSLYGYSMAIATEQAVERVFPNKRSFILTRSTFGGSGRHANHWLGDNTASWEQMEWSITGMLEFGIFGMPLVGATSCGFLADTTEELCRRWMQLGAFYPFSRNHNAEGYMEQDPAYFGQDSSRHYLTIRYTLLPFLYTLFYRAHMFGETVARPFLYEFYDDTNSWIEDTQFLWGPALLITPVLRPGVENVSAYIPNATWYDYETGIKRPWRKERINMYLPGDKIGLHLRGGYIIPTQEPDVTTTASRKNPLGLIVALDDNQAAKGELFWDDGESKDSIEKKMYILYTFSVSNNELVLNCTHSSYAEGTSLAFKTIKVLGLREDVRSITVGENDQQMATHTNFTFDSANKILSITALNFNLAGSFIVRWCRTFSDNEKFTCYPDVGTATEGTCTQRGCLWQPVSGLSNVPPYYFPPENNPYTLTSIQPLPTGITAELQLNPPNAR
Chain of Sucrase-isomaltase, intestinal (P23739 1014-1841 limits assumed): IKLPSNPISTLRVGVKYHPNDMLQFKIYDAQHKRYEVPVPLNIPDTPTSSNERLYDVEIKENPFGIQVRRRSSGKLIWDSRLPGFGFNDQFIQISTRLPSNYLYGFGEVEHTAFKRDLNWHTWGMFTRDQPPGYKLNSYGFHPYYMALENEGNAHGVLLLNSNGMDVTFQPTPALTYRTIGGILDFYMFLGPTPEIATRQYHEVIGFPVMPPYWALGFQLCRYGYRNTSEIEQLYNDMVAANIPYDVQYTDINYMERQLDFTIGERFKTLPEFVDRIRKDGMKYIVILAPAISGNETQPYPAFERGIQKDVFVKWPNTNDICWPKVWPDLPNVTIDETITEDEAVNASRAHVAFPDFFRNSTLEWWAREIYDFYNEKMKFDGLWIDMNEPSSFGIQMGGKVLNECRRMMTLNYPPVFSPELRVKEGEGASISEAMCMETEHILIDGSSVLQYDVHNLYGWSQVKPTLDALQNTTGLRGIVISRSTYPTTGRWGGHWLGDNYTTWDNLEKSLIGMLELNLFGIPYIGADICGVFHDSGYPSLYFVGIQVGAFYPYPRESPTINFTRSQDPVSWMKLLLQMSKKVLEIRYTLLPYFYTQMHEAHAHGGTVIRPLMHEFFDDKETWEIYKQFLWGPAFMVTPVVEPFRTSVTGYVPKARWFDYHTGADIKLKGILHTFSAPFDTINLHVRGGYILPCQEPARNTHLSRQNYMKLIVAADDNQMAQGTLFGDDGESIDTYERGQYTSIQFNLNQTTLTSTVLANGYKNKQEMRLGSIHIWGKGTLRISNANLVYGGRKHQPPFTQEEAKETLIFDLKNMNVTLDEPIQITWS

Chain of Lysosomal alpha-glucosidase (Rattus norvegicus) (Q6P7A9 whole entry): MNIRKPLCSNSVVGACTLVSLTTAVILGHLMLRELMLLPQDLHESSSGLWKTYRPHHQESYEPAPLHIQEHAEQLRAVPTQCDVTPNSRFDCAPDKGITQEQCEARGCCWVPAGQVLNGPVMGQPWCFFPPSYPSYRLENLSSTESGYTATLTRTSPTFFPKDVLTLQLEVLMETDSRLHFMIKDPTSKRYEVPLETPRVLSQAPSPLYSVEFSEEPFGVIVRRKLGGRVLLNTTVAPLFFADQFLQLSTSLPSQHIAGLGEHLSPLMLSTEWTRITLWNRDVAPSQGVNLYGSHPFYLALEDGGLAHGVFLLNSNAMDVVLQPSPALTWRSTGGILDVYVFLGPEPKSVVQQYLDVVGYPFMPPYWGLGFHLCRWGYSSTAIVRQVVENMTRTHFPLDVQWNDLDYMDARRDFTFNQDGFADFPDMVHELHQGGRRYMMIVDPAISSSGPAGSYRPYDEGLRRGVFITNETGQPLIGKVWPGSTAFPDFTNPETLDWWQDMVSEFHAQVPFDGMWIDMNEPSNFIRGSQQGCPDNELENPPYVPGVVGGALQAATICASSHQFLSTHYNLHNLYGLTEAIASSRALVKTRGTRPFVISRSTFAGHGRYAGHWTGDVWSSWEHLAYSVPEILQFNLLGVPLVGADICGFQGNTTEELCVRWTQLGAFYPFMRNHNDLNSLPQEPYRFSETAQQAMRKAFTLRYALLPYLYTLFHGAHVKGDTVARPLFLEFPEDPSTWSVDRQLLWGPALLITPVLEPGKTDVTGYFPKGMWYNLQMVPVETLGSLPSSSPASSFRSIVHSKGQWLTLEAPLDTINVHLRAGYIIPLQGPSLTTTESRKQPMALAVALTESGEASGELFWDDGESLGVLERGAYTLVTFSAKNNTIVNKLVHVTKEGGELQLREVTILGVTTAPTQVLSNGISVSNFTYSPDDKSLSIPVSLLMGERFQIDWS
Chain of Sucrase-isomaltase, intestinal (Rattus norvegicus) (P23739 1-1013 limits assumed): as the sequence (P23739 1-1013 limits assumed) above
Chain of Sucrase-isomaltase, intestinal (Rattus norvegicus) (P23739 1014-1841 limits assumed): as the sequence (P23739 1014-1841 limits assumed) above
Chain of Lactase/phlorizin hydrolase (Q02401 868-1928 limits assumed): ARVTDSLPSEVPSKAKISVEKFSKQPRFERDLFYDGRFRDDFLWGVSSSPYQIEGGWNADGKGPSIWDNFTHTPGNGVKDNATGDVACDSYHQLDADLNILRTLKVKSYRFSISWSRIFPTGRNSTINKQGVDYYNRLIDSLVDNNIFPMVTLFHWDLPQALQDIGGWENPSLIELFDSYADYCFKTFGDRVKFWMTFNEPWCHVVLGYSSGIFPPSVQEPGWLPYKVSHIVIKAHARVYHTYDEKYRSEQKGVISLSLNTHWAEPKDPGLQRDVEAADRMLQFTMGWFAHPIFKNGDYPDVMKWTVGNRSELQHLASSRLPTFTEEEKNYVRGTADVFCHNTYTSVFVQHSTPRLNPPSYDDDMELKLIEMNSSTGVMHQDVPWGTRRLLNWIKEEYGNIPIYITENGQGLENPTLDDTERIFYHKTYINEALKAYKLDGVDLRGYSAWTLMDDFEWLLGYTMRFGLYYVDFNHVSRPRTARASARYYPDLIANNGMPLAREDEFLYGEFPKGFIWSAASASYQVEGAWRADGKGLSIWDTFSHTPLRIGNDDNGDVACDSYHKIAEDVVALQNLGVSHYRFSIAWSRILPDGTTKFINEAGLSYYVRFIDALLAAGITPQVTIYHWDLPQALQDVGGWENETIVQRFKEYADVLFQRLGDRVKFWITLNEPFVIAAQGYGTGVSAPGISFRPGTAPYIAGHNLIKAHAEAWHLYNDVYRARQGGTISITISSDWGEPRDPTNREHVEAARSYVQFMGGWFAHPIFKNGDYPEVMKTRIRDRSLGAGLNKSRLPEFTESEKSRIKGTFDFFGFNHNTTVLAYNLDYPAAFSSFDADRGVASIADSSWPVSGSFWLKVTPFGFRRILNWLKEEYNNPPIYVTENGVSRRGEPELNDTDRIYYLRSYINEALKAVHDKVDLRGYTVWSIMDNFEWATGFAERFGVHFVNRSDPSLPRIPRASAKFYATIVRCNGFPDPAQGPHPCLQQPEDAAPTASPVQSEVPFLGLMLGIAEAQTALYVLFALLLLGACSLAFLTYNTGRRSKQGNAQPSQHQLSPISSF
Chain of Lactase/phlorizin hydrolase (Rattus norvegicus) (Q02401 868-1928 limits assumed): as above

SMILES	inhibition (Oryza sativa) [%]	inhibition [1] [%]	inhibition [2] [%]	inhibition [3] [%]	inhibition [4] [%]	inhibition [5] [%]	IC50 [6] [µM]	inhibition [7] [%]	inhibition [8] [%]	inhibition (Bos taurus) [%]	inhibition (Rattus norvegicus) [%]	IC50 [9] [µM]	Ki [10] [µM]	IC50 [11] [µM]	IC50 (Uncharacterized protein) [µM]	IC50 [12] [µM]	IC50 [13] [µM]	IC50 [14] [µM]	Ki [15] [µM]	IC50 [16] [µM]
OCC[C@H]1N[C@@H](CO)[C@H](O)[C@H]1O	< 50	< 50	< 50	< 50	< 50	< 50	50	< 50	< 50	< 50	< 50	–	–	–	–	–	–	–	–	–
OCC(O)[C@H]1N[C@H](CO)[C@@H](O)[C@@H]1O (mixture of isomers)	–	–	–	< 50	–	–	–	< 50	–	–	–	3.8	54	4	5	130	4.4	2	1.5	300
OCC[C@H]1N[C@H](CO)[C@@H](O)[C@@H]1O	–	–	–	< 50	–	–	–	–	< 50	–	–	380	–	320	–	2.2	60	380	–	11
OC[C@H]1N[C@H](CO)[C@@H](O)[C@@H]1O	–	–	–	–	< 50	–	–	–	–	–	–	11	7	–	–	200	2.5	–	10	–
